The text below walks through data of paper PMC11377560, “Structural insights into the molecular effects of the anthelmintics monepantel and betaine on the Caenorhabditis elegans acetylcholine receptor ACR-23” (The EMBO Journal, 2024).

The target in assay [1] is T1, ACR-23 (acetylcholine receptor like-23) (Caenorhabditis elegans, UniProt G5EG88).
T1 construct: homo-pentamer; M3-M4 loop (residues Lys 386 to Gln 437) replaced with bRIL, C-terminal strep tag (cryo-EM); ACR-23 with C-terminal GFP in HEK293 cells (EC50)
T1 sequence (G5EG88 20-545): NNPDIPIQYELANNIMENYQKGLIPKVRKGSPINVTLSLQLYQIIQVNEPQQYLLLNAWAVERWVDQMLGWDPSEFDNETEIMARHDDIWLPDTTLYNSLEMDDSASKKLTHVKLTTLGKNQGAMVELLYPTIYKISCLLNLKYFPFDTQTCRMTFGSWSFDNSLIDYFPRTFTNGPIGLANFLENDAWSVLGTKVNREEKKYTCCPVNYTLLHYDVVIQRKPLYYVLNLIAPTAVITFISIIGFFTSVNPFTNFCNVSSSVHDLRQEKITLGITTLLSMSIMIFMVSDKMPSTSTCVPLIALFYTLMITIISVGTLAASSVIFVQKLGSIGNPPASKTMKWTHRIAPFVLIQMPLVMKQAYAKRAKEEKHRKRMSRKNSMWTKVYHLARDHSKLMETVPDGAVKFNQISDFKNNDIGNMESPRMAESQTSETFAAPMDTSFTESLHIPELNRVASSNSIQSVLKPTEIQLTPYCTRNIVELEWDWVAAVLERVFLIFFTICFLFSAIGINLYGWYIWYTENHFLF
Briefly: cryo-EM structure ([…] Å); EC50 by whole-cell patch clamp in HEK293 cells. The assay is classed as cell-based. Background: In patch-clamp work, channel activity is measured electrically.

In assay [2] the target is T1, ACR-23 (acetylcholine receptor like-23). The experiment in a line: cryo-EM structure ([…] Å, betaine co-bound); EC50 by whole-cell patch clamp in HEK293 cells. The assay is classed as cell-based.
In assay [3] the target is engineered ACR-23 (acetylcholine receptor like-23), M3-M4 loop replaced with bRIL (Caenorhabditis elegans | not stated) (UniProt G5EG88). The experiment in a line: cryo-EM structure; single particle cryo-EM of purified ACR-23 in DDM/CHS, 20 mM Tris pH 8.0, 150 mM NaCl; apo, with 1.5 mM betaine, or with 1.5 mM betaine and 5 mM monepantel; homo-pentamer in all three states.

As a reminder, the EC50 is the concentration needed to bring the measured effect to its halfway point. A high value points to a less potent agent. For `C[N+](C)(C)CC(=O)O` [betaine], the EC50 in assay [1] is approximately 34.4 µM.

`CC(C#N)(COc1cc(C#N)ccc1C(F)(F)F)NC(=O)c1ccc(SC(F)(F)F)cc1` (racemic) [monepantel] had an EC50 in assay [2] of 2.13 µM.

What is called stoichiometry N is a count of units in the complex or per binding partner. In turn, “engineered ACR-23 (acetylcholine receptor like-23), M3-M4 loop replaced with bRIL (from UniProt G5EG88 20-385; G5EG88 438-545)” yielded a stoichiometry N in assay [3] of 5.
